Earlier results in patent US20230181690A1, “METHODS FOR TREATING ANEMIA USING AN ACTRIIB LIGAND TRAP AND FEDRATINIB” (Celgene Corporation, priority 2020, published 2023).

What was measured:
[1] = tested on: MPN-associated myelofibrosis
[2] = tested on: cell models expressing mutationally active JAK2 or FLT3
[3] = tested on: intermediate-2 or high-risk MF; conditions: previously untreated patients with intermediate-2 or high-risk MF
[4] = tested on: cell models expressing mutationally active JAK2 or FLT3; remark: listed apart in the source
[5] = tested on: JAK2V617F-driven myeloproliferative disease; conditions: mouse, in vivo
GDF-11 = target: T1, GDF-11 (Homo sapiens, UniProt O95390)
T1 sequence (O95390 299-407): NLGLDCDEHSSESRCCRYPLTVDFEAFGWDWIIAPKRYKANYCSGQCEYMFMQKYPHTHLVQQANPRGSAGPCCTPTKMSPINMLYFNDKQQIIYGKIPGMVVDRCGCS

Q: Which results are given for `Cc1cnc(Nc2ccc(OCCN3CCCC3)cc2)nc1Nc1cccc(S(=O)(=O)NC(C)(C)C)c1` [fedratinib, N-tert-butyl-3-[(5-methyl-2-{4-[2-(pyrrolidin-1-yl)ethoxy]anilino}pyrimidin-4-yl)amino]benzenesulfonamide]?
A: thrombocytopenia and anemia associated with therapy ([1]; patients): can be associated with moderate to severe thrombocytopenia and anemia; cell proliferation [2]: inhibited cell proliferation; clinical efficacy [3]: demonstrated clinical efficacy; potency for JAK2 over family members JAK1, JAK3 and TYK2 (Janus Kinase 2 (JAK2)): higher potency for JAK2 over family members JAK1, JAK3 and tyrosine kinase 2 (TYK2); phosphorylation of STAT3/5 proteins [4]: reduced phosphorylation; disease-associated symptoms [5]: improved disease-associated symptoms, including reduction of white blood cells, hematocrit, splenomegaly, and fibrosis; phosphorylation of STAT3/5 [5]: blocked phosphorylation of STAT3/5

Q: For `N#CC[C@H](C1CCCC1)n1cc(-c2ncnc3[nH]ccc23)cn1` [ruxolitinib], which exacerbation of anemia ([1]; patients with MPN-associated myelofibrosis) is on record?
A: can exacerbate the anemia

B1: A64: Fc fusion protein having the ActRIIB extracellular sequence with an alanine at position 64 of SEQ ID NO:2 (protein)
chain: SGRGEAETRECIYYNANWELERTNQSGLERCEGEQDKRLHCYASWANSSGTIELVKKGCWLDDFNCYDRQECVATEENPQVYFCCCEGNFCNERFTHLPEAGGPEVTYEPPPTAPTGGGTHTCPPCPAPELLGGPSVFLFPPKPKDTLMISRTPEVTCVVVDVSHEDPEVKFNWYVDGVEVHNAKTKPREEQYNSTYRVVSVLTVLHQDWLNGKEYKCKVSNKALPVPIEKTISKAKGQPREPQVYTLPPSREEMTKNQVSLTCLVKGFYPSDIAVEWESNGQPENNYKTTPPVLDSDGSFFLYSKLTVDKSRWQQGNVFSCSVMHEALHNHYTQKSLSLSPGK
modifications: fusion protein comprising a soluble extracellular domain of ActRIIB (A64; SEQ ID NO 3) fused to an Fc domain
Q: For B1, which “affinity for GDF-11” value (GDF-11) is on record?
A: relatively low affinity

Q: What about the affinity for activin (activin) of the same molecule?
A: relatively low affinity

B2: R64: Fc fusion protein with an arginine at position 64 of the ActRIIB precursor amino acid sequence (protein)
chain: SGRGEAETRECIYYNANWELERTNQSGLERCEGEQDKRLHCYASWRNSSGTIELVKKGCWLDDFNCYDRQECVATEENPQVYFCCCEGNFCNERFTHLPEAGGPEVTYEPPPTAPTGGGTHTCPPCPAPELLGGPSVFLFPPKPKDTLMISRTPEVTCVVVDVSHEDPEVKFNWYVDGVEVHNAKTKPREEQYNSTYRVVSVLTVLHQDWLNGKEYKCKVSNKALPVPIEKTISKAKGQPREPQVYTLPPSREEMTKNQVSLTCLVKGFYPSDIAVEWESNGQPENNYKTTPPVLDSDGSFFLYSKLTVDKSRWQQGNVFSCSVMHEALHNHYTQKSLSLSPGK
modifications: fusion protein comprising a soluble extracellular domain of ActRIIB (R64; SEQ ID NO15) fused to an Fc domain
Q: What does the source list for B2?
A: affinity for GDF-11 (GDF-11): low nanomolar to high picomolar range; affinity for activin (activin): low nanomolar to high picomolar range

B3: ActRIIB(20-119)-Fc: ActRIIB-Fc fusion protein containing amino acids 20-119 of SEQ ID NO:14 (SEQ ID NO:18) (protein)
chain: GRGEAETRECIYYNANWELERTNQSGLERCEGEQDKRLHCYASWRNSSGTIELVKKGCWLDDFNCYDRQECVATEENPQVYFCCCEGNFCNERFTHLPEA
modifications: human ActRIIB soluble (extracellular), processed polypeptide sequence with the C-terminal 15 aa deleted (aa 20-119 of SEQ ID NO14)
Q: Which “binding to GDF-11 relative to ActRIIB(20-134)-Fc” value (GDF-11) does the source give for B3 here?
A: reduced binding

Q: What about the “binding to activin relative to ActRIIB(20-134)-Fc” value (activin) of the same molecule?
A: reduced binding
